Test results published in patent US20180327354A1, “Unnatural Analogues of Calcitriol and Uses Thereof” (Vidasym, Inc., priority 2009, published 2018).

Test system: 5/6 nephrectomized uremic rats
Assay: Left ventricular hypertrophy in 5/6 nephrectomized uremic rats
Type: in vivo, Sprague Dawley rats
Conditions: 5/6 NX rats, 0.16 and 0.64 μg/kg, LVH study

For `CCC(O)(CC)CCO[C@H](C)C1CCC2/C(=C/C=C3C[C@@H](O)C4(CC4)[C@H](O)C3)CCCC21C` (stereo partly drawn) [Vida-10, (4R,8R)-6-((E)-2-((1S,7αS)-1-((R)-1-(3-ethyl-3-hydroxypentyloxy)ethyl)-7α-methyldihydro-1H-inden-4(2H,5H,6H,7H,7αH)-ylidene)ethylidene)spiro[2.5]octane-4,8-diol], which “effect on serum Ca” value is on record?
Its value is “no effect”.
